Measured values published in PubChem BioAssay (NCI).
Where “and” joins values, the source holds several entries; their conditions need not be identical. Identical values can stand only once.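 Growth conditions: 96-well plates. Treatment: test compound, 48 hours, 5 concentrations. Analysis: linear interpolation between bracketing concentrations; unreached endpoints set to highest concentration. At the GI50, growth is halved. Definition used: TGI = concentration required for complete inhibition of growth.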

Columns and labels:
Assay in all cases: inhibition of tumour cell growth, NCI panel, 48 h
MOLT-4 leukemia = system: MOLT-4 leukemia
SK-MEL-5 melanoma = system: SK-MEL-5 melanoma
SW-620 colon = system: SW-620 colon
COLO 205 colon = system: COLO 205 colon
RPMI-8226 leukemia = system: RPMI-8226 leukemia
U251 CNS = system: U251 CNS
OVCAR-8 ovarian = system: OVCAR-8 ovarian
K-562 leukemia = system: K-562 leukemia
CCRF-CEM leukemia = system: CCRF-CEM leukemia
UACC-62 melanoma = system: UACC-62 melanoma

SMILES | GI50 (MOLT-4 leukemia) | TGI (MOLT-4 leukemia) | GI50 (SK-MEL-5 melanoma) | TGI (SK-MEL-5 melanoma) | GI50 (SW-620 colon) | TGI (SW-620 colon) | GI50 (COLO 205 colon) | TGI (COLO 205 colon) | GI50 (RPMI-8226 leukemia) | TGI (RPMI-8226 leukemia) | GI50 (U251 CNS) | TGI (U251 CNS) | GI50 (OVCAR-8 ovarian) | TGI (OVCAR-8 ovarian) | GI50 (K-562 leukemia) | TGI (K-562 leukemia) | GI50 (CCRF-CEM leukemia) | TGI (CCRF-CEM leukemia) | GI50 (UACC-62 melanoma) | TGI (UACC-62 melanoma)
C=CCCCC(O)c1ccc(C(O)c2cnc3ccccc3c2)o1 (stereo unspecified) | 32.1 µM | 82 µM | 9.52 µM | 22.4 µM | 38.1 µM | > 100 µM | 33.7 µM | > 100 µM | 17.9 µM | 72.2 µM | 29.9 µM | > 100 µM | 26.7 µM | 72 µM | 25 µM | 52.6 µM | 29.4 µM | 86.7 µM | 19.8 µM | 39.8 µM
CC(O)c1ccc(C(O)/C(=N\NC(=O)c2ccncc2)c2nc3ccc([N+](=O)[O-])cc3[nH]c2=O)cc1 (stereo unspecified) |  | > 100 µM |  | > 100 µM |  | > 100 µM |  | > 100 µM |  | > 100 µM |  | > 100 µM |  | > 100 µM |  | > 100 µM |  | > 100 µM |  | > 100 µM
COc1ccc2c(c1)C(=O)c1c-2c(OCCN2CCCCC2)nc2ccc(OC)cc12 | 0.305 µM | 1.81 µM | 1.92 µM | 5.61 µM | 0.269 µM | 2.19 µM | 0.723 µM | 11.1 µM | 0.474 µM | 2.67 µM | 0.513 µM | 1.79 µM | 0.601 µM | 4.67 µM | 0.413 µM | 2.76 µM | 0.197 µM | 2.66 µM | 1.35 µM | 6.3 µM
O=C1c2ccccc2-c2ccccc2C1(Cl)Cl | 2.19 µM | 7.09 µM | 1.32 µM | 2.63 µM | 1.84 µM | 3.82 µM | 1.81 µM | 3.47 µM | 0.527 µM | 2.63 µM | 0.314 µM | 1.07 µM | 0.334 µM | 1.26 µM | 0.43 µM | 5.46 µM | 1.65 µM | 7.03 µM | 1.66 µM | 3.34 µM
Cc1ccnc(NC(c2ccccc2)c2ccc3cccnc3c2O)c1 (stereo unspecified) | 2.53 µM | > 100 µM | 4.31 µM | 15.6 µM | 3.86 µM | 15.6 µM | 14.3 µM | 73.4 µM | 8.19 µM | > 100 µM | 2.85 µM | 12.7 µM | 3.23 µM | 16.3 µM | 3.27 µM | > 100 µM | 2.43 µM | > 100 µM | 4.42 µM | 87.9 µM
CC(C)=Cc1cc(C(=O)NCCNC(=O)c2cc(C=C(C)C)nc(NC#N)n2)nc(NC#N)n1 |  | > 100 µM |  | > 100 µM |  | > 100 µM |  | > 100 µM |  | > 100 µM |  | > 100 µM |  | > 100 µM |  | > 100 µM |  | > 100 µM |  | > 100 µM
Cc1cc(Cl)ccc1Nc1nc2c(s1)C(=O)c1ccccc1C2=O |  | > 25.4 µM |  | 3.34 µM |  | 4.01 µM |  | 16.8 µM |  | 11.1 µM |  | 12.7 µM |  | 11.6 µM |  | > 23.3 µM |  | > 26.3 µM |  | 7.41 µM
COc1ccc(/C=C/C(=O)c2ccccc2)cc1OC | 17.9 µM | > 100 µM | 14.5 µM | 31.4 µM and 27.9 µM |  | > 100 µM and 18.4 µM |  | 31.6 µM and 34.8 µM | 3.93 µM | > 100 µM and 25.3 µM | 5.81 µM | 21.9 µM and 18.1 µM |  | 39.6 µM and 39.2 µM | 3.95 µM | > 100 µM | 3.72 µM |  | 11.7 µM | 27.1 µM and 27.3 µM
Clc1ccc(Nc2ncnc3c2sc2ncccc23)c(Cl)c1 | 0.0382 µM | > 100 µM | 0.0254 µM | > 100 µM | 0.0617 µM | > 100 µM | 0.0573 µM | > 25.8 µM | 0.0326 µM | > 100 µM | 0.0152 µM | > 100 µM | < 0.0135 µM | > 100 µM | 0.27 µM | > 100 µM | 0.0218 µM | > 100 µM | 0.0279 µM | 8.37 µM
COC(=O)[C@H](C)[C@@H]1CC[C@](C)(CCC2=C(C)CCCC2(C)C)OO1 |  | > 25 µM |  | > 25 µM |  | > 25 µM |  | > 25 µM |  | > 25 µM |  | > 25 µM |  | > 25 µM |  | > 25 µM |  | > 25 µM |  | > 25 µM
COC(=O)c1cc2c(nc1C)-c1ccccc1OS2(=O)=O |  | > 100 µM |  | > 100 µM |  | > 100 µM |  | > 100 µM |  | > 100 µM |  | > 100 µM |  | > 100 µM |  | > 100 µM |  | > 100 µM |  | > 100 µM
Cc1cc(N(CCC#N)CCC#N)ccc1CC1N=C(c2ccccc2)OC1=O (stereo unspecified) |  | > 100 µM |  | > 100 µM |  | > 100 µM |  | > 100 µM |  | > 100 µM |  | > 100 µM |  | > 100 µM |  | > 100 µM |  | > 100 µM |  | > 100 µM
COc1ccc(NC(=O)C2=CC(=O)c3ccc(O)cc3C2=O)c(OC)c1 |  | > 100 µM |  | > 100 µM |  | > 100 µM |  | > 100 µM |  | > 100 µM |  | > 100 µM |  | > 100 µM |  | > 100 µM |  | > 100 µM |  | > 100 µM
C=CCn1c(=O)c(C(=O)NC(=O)OCC)cn(C2CCCCC2)c1=O |  | > 100 µM |  | > 100 µM |  | > 100 µM |  | > 100 µM |  | > 100 µM |  | > 100 µM |  | > 100 µM |  | > 100 µM |  | > 100 µM |  | > 100 µM
O=C1NC(Cc2ccccc2)C(=O)N2CCCC12 (stereo unspecified) |  | > 100 µM |  | > 100 µM |  | > 100 µM |  | > 100 µM |  | > 100 µM |  | > 100 µM |  | > 100 µM |  | > 100 µM |  | > 100 µM |  | > 100 µM
CCC1OC(=O)CC(O)C(C)C(OC2OC(C)CC(N(C)C)C2O)C(CC=O)CC(C)C(=O)/C=C/C2(C)OC2C1C (stereo unspecified) |  | 43.4 µM |  | 29.3 µM |  | 34.8 µM |  | 32.2 µM |  | > 100 µM |  | 30.8 µM |  | 68.5 µM |  | 24.3 µM |  | 26.2 µM |  | 28.9 µM
